Patent US11076595B2, “1-(n,n-disubstituted carbamoyl) 4-(substituted sulfonyl)triazolin-5-one derivative, 4-(n,n-disubstituted carbamoyl) 1-(substituted sulfonyl)triazolin-5-one derivative, and herbicide containing said derivative as active ingredient” (HOKKO CHEMICAL INDUSTRY CO., LTD., priority 2017, dated 2021)

Key:
Assay type in all cases: in vivo
Echinochloa crus-galli [1] = experiment: Test Example 1: herbicidal effect test by soil treatment in paddy field; settings: 120 g/10a, paddy soil treatment just after sowing, 14 days after treatment
Summary of the method: (§1)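 Paddy soil in flooded pots (~3 cm water), sown with 30 seeds per species at 0–1 cm depth, kept in a greenhouse. Water-diluted emulsifiable concentrate applied dropwise right after sowing at 120 g active ingredient per 10 are. Weed suppression (%) from dry weight vs untreated pots after 14 days, two replicates.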

Lindernia pyxidaria [2] = experiment: as above; settings: 120 g/10a, paddy soil treatment just after sowing, 14 days after treatment
Summary of the method: as §1

Monochoria vaginalis [3] = experiment: as above; settings: 120 g/10a, paddy soil treatment just after sowing, 14 days after treatment
Summary of the method: as §1

Scirpus juncoides [4] = experiment: as above; settings: 120 g/10a, paddy soil treatment just after sowing, 14 days after treatment
Summary of the method: as §1

Echinochloa crus-galli [5] = experiment: Test Example 2: herbicidal effect test by treatment during growing period in paddy field; settings: treatment 7 days after sowing, 120 g/10a, evaluated 14 days after treatment
Summary of the method: (§2)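 Paddy soil in Wagner pots, flooded to ~3 cm; 30 seeds per species sown 0–1 cm deep, greenhouse-grown. Emulsifiable concentrate diluted in water and dripped into flood water 7 days after sowing at 120 g active ingredient per 10 are. Dry-weight suppression vs untreated assessed 14 days post-treatment, two replicates.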

Lindernia pyxidaria [6] = experiment: as above; settings: treatment 7 days after sowing, 120 g/10a, evaluated 14 days after treatment
Summary of the method: as §2

Monochoria vaginalis [7] = experiment: as above; settings: treatment 7 days after sowing, 120 g/10a, evaluated 14 days after treatment
Summary of the method: as §2

Scirpus juncoides [8] = experiment: as above; settings: treatment 7 days after sowing, 120 g/10a, evaluated 14 days after treatment
Summary of the method: as §2

Amaranthus viridis [9] = experiment: Test Example 4: herbicidal effect test by foliage treatment in upland field; settings: upland field foliage treatment 7 days after sowing; 120 g/10a; evaluated 14 days after treatment
Protocol: (§3) This test was performed with two replications per one formulation concentration plot, and 14 days after the formulation treatments, the weed suppression rate (%) was determined according to the following equation (Math. 1). Weed suppression rate (%)=(1−an average dry weight (g) of plants in treated plots/an average dry weight (g) of plants in untreated plots)×100 [Math. 1]
(§4) A pot having a size of 36 cm^2 was filled with field soil (alluvial soil) and after uniformly mixing the soil of the surface layer of 1 cm with 20 grains of each weed seed of crabgrass, Echinochloa crus-galli, Chenopodium album and Amaranthus viridis, the surface layer was pressed lightly. Seven days after the sowing, an emulsifiable concentrate prepared according to Formulation Example 5 by using the compound shown in Table 8 below was diluted with water, and the water-diluted formulation was sprayed on the soil surface at a ratio of 100 liter per 10 are. The application rate of the active ingredient, by conversion, corresponded to 120 g per 10 are. Fourteen days after the formulation treatment, the herbicidal effect was evaluated by the same criteria as in Test Example 1.

Chenopodium album [10] = experiment: as above; settings: upland field foliage treatment 7 days after sowing; 120 g/10a; evaluated 14 days after treatment
Protocol: as §3, §4

Echinochloa crus-galli [11] = experiment: as above; settings: upland field foliage treatment 7 days after sowing; 120 g/10a; evaluated 14 days after treatment
Protocol: as §3, §4

crabgrass [12] = experiment: as above; settings: upland field foliage treatment 7 days after sowing; 120 g/10a; evaluated 14 days after treatment
Protocol: as §3, §4

Amaranthus viridis [13] = experiment: Test Example 3: herbicidal effect test by soil treatment in upland field; settings: upland field soil treatment 1 day after sowing; 120 g/10a; evaluated 14 days after treatment
Protocol: as §3
as §4, with “One day” for “Seven days”, “7” for “8”

Chenopodium album [14] = experiment: as above; settings: upland field soil treatment 1 day after sowing; 120 g/10a; evaluated 14 days after treatment
Protocol: as §3
as §4, with “One day” for “Seven days”, “7” for “8”

Echinochloa crus-galli [15] = experiment: as above; settings: upland field soil treatment 1 day after sowing; 120 g/10a; evaluated 14 days after treatment
Protocol: as §3
as §4, with “One day” for “Seven days”, “7” for “8”

crabgrass [16] = experiment: as above; settings: upland field soil treatment 1 day after sowing; 120 g/10a; evaluated 14 days after treatment
Protocol: as §3
as §4, with “One day” for “Seven days”, “7” for “8”

Structure (SMILES)	weed suppression rate, Echinochloa crus-galli (Echinochloa crus-galli [1]) [%]	weed suppression rate, Lindemia pyxidaria (Lindernia pyxidaria [2]) [%]	weed suppression rate, Monochoria vaginalis (Monochoria vaginalis [3]) [%]	weed suppression rate, Scirpus juncoides (Scirpus juncoides [4]) [%]	weed suppression rate, Echinochloa crus-galli (Echinochloa crus-galli [5]) [%]	weed suppression rate, Lindemia pyxidaria (Lindernia pyxidaria [6]) [%]	weed suppression rate, Monochoria vaginalis (Monochoria vaginalis [7]) [%]	weed suppression rate, Scirpus juncoides (Scirpus juncoides [8]) [%]	herbicidal effect (weed suppression rate), Amaranthus viridis (Amaranthus viridis [9]) [%]	herbicidal effect (weed suppression rate), Chenopodium album (Chenopodium album [10]) [%]	herbicidal effect (weed suppression rate), Echinochloa crus-galli (Echinochloa crus-galli [11]) [%]	herbicidal effect (weed suppression rate), Crabgrass (crabgrass [12]) [%]	herbicidal effect (weed suppression rate), Amaranthus viridis (Amaranthus viridis [13]) [%]	herbicidal effect (weed suppression rate), Chenopodium album (Chenopodium album [14]) [%]	herbicidal effect (weed suppression rate), Echinochloa crus-galli (Echinochloa crus-galli [15]) [%]	herbicidal effect (weed suppression rate), Crabgrass (crabgrass [16]) [%]
CC(C)N(C(=O)n1ncn(S(=O)(=O)C2CC2)c1=O)c1c(F)c(F)cc(F)c1F [Compound 1-206]	100	100	90	100	100	80	90	100	80	60	100	100				
Cc1ccc(N(C(=O)n2ncn(S(=O)(=O)C3CC3)c2=O)C(C)C)c(F)c1 [Compound 1-221]	90	90	90	90	90	80	80	90					90	80	80	90
CC(C)N(C(=O)n1ncn(S(=O)(=O)C2CC2)c1=O)c1ccc(C(F)(F)F)cc1F [Compound 1-226]	100	100	100	100	100	80	100	90	90	80	100	100				
CC(C)N(C(=O)n1ncn(S(=O)(=O)C2CC2)c1=O)c1ccc(C(F)(F)F)cc1Cl [Compound 1-229]	90	80	80	90	90	80	80	90					90	80	80	90
CC(C)N(C(=O)n1ncn(S(=O)(=O)C(C)C)c1=O)c1ccc(F)nc1 [Compound 1-242]													90	80	80	90
CC(C)N(C(=O)n1ncn(S(=O)(=O)C2CCCCC2)c1=O)c1ccc(F)cc1F [Compound 1-306]	100	100	100	100	100	100	100	90					90	80	80	90
CC(C)N(C(=O)n1ncn(S(=O)(=O)C2CCCCC2)c1=O)c1ccc(F)c(F)c1F [Compound 1-309]	100	100	100	100	100	80	100	100	0	80	100	100				
CC(C)N(C(=O)n1ncn(S(=O)(=O)C2CCCCC2)c1=O)c1c(F)c(F)cc(F)c1F [Compound 1-311]	100	100	100	100	100	80	100	90	0	60	100	100				
Cc1cc(F)ccc1N(C(=O)n1ncn(S(=O)(=O)C2CCCCC2)c1=O)C(C)C [Compound 1-319]	100	80	80	100	100	80	90	80	70	70	70	80				
CC(C)N(C(=O)n1ncn(S(=O)(=O)N(C)C)c1=O)c1ccc(Cl)nc1Cl [Compound 1-1136]	100	90	90	90	100	90	80	90	90	80	80	90				
CCN(C)S(=O)(=O)n1cnn(C(=O)N(c2ccc(F)cc2F)C(C)C)c1=O [Compound 1-1139]	100	90	90	90	90	80	80	90					90	80	80	90
CCN(CC)S(=O)(=O)n1cnn(C(=O)N(c2ccc(F)cc2F)C(C)C)c1=O [Compound 1-1140]	90	80	80	90									90	80	80	90
